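Grown in 96-well plates, cells were treated for 48 hours with each compound at five concentrations. Insufficient inhibition: endpoint recorded as highest concentration tested. TGI: concentration producing complete growth inhibition.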
tested on: DLD-1 colon; test: NCI tumour cell line growth inhibition, 48 h

Compound	TGI [µM]
Cn1c(=O)n(C2(C)C[Se]C2)c2ccccc21	> 100
COC(=O)C(Cc1nc2ccc(Cl)cc2[nH]c1=O)/C(=N\N)C(=O)Nc1cc(C)c(Cl)cc1S(=O)(=O)O (centres undefined)	> 100

tested on: RXF 393 renal; test: NCI tumour cell line growth inhibition, 48 h

Compound	TGI [µM]
O=C1/C(=C/c2ccccc2S)N=C(c2ccccc2)N1c1nc2c(Cl)cc(Cl)cc2s1	58
CCCCCCc1cc2cc(C(=O)Nc3ccccc3)c(=N)oc2cc1O	> 100
Cc1nn(-c2ccccc2)c2c1C(c1ccc(Cl)cc1)NC(=S)N2 (centres undefined)	35.3
CCOC1OC(=O)c2cc3ccc4c(c3c(-c3ccc5c(c3)OCO5)c21)OCO4 (centres undefined)	97.9
CN=C1CC2c3cc(OC)c(OC)cc3CCN2C2=C1C(=O)CC(C)(C)C2 (centres undefined)	> 100
Cn1c(=O)n(C2(C)C[Se]C2)c2ccccc21	> 100

tested on: LXFL 529 NSCLC; test: NCI tumour cell line growth inhibition, 48 h

Compound	TGI [µM]
CN=C1CC2c3cc(OC)c(OC)cc3CCN2C2=C1C(=O)CC(C)(C)C2 (centres undefined)	> 100
Cn1c(=O)n(C2(C)C[Se]C2)c2ccccc21	> 100
COC(=O)C(Cc1nc2ccc(Cl)cc2[nH]c1=O)/C(=N\N)C(=O)Nc1cc(C)c(Cl)cc1S(=O)(=O)O (centres undefined)	> 100

tested on: LOX IMVI melanoma; test: NCI tumour cell line growth inhibition, 48 h

Compound	TGI [µM]
O=C1/C(=C/c2ccccc2S)N=C(c2ccccc2)N1c1nc2c(Cl)cc(Cl)cc2s1	50.4
CCCCCCc1cc2cc(C(=O)Nc3ccccc3)c(=N)oc2cc1O	12.5
Cc1nn(-c2ccccc2)c2c1C(c1ccc(Cl)cc1)NC(=S)N2 (centres undefined)	31.1
CCOC1OC(=O)c2cc3ccc4c(c3c(-c3ccc5c(c3)OCO5)c21)OCO4 (centres undefined)	> 100
CN=C1CC2c3cc(OC)c(OC)cc3CCN2C2=C1C(=O)CC(C)(C)C2 (centres undefined)	> 100
Cn1c(=O)n(C2(C)C[Se]C2)c2ccccc21	> 100
COC(=O)C(Cc1nc2ccc(Cl)cc2[nH]c1=O)/C(=N\N)C(=O)Nc1cc(C)c(Cl)cc1S(=O)(=O)O (centres undefined)	> 100

tested on: MDA-MB-231 breast; test: NCI tumour cell line growth inhibition, 48 h

Compound	TGI [µM]
O=C1/C(=C/c2ccccc2S)N=C(c2ccccc2)N1c1nc2c(Cl)cc(Cl)cc2s1	80.9
CCCCCCc1cc2cc(C(=O)Nc3ccccc3)c(=N)oc2cc1O	> 100
Cc1nn(-c2ccccc2)c2c1C(c1ccc(Cl)cc1)NC(=S)N2 (centres undefined)	51.2
CCOC1OC(=O)c2cc3ccc4c(c3c(-c3ccc5c(c3)OCO5)c21)OCO4 (centres undefined)	> 100

tested on: SK-MEL-28 melanoma; test: NCI tumour cell line growth inhibition, 48 h

Compound	TGI [µM]
O=C1/C(=C/c2ccccc2S)N=C(c2ccccc2)N1c1nc2c(Cl)cc(Cl)cc2s1	> 100
CCCCCCc1cc2cc(C(=O)Nc3ccccc3)c(=N)oc2cc1O	> 100
CCOC1OC(=O)c2cc3ccc4c(c3c(-c3ccc5c(c3)OCO5)c21)OCO4 (centres undefined)	> 100
CN=C1CC2c3cc(OC)c(OC)cc3CCN2C2=C1C(=O)CC(C)(C)C2 (centres undefined)	> 100
Cn1c(=O)n(C2(C)C[Se]C2)c2ccccc21	> 100
COC(=O)C(Cc1nc2ccc(Cl)cc2[nH]c1=O)/C(=N\N)C(=O)Nc1cc(C)c(Cl)cc1S(=O)(=O)O (centres undefined)	> 100

tested on: PC-3 prostate; test: NCI tumour cell line growth inhibition, 48 h

Compound	TGI [µM]
O=C1/C(=C/c2ccccc2S)N=C(c2ccccc2)N1c1nc2c(Cl)cc(Cl)cc2s1	51.6
CCCCCCc1cc2cc(C(=O)Nc3ccccc3)c(=N)oc2cc1O	> 30.3
Cc1nn(-c2ccccc2)c2c1C(c1ccc(Cl)cc1)NC(=S)N2 (centres undefined)	47.9
CCOC1OC(=O)c2cc3ccc4c(c3c(-c3ccc5c(c3)OCO5)c21)OCO4 (centres undefined)	> 100

tested on: SK-MEL-5 melanoma; test: NCI tumour cell line growth inhibition, 48 h

Compound	TGI [µM]
O=C1/C(=C/c2ccccc2S)N=C(c2ccccc2)N1c1nc2c(Cl)cc(Cl)cc2s1	36
CCCCCCc1cc2cc(C(=O)Nc3ccccc3)c(=N)oc2cc1O	8.41
Cc1nn(-c2ccccc2)c2c1C(c1ccc(Cl)cc1)NC(=S)N2 (centres undefined)	52.1
CCOC1OC(=O)c2cc3ccc4c(c3c(-c3ccc5c(c3)OCO5)c21)OCO4 (centres undefined)	27
CN=C1CC2c3cc(OC)c(OC)cc3CCN2C2=C1C(=O)CC(C)(C)C2 (centres undefined)	> 100
Cn1c(=O)n(C2(C)C[Se]C2)c2ccccc21	> 100
COC(=O)C(Cc1nc2ccc(Cl)cc2[nH]c1=O)/C(=N\N)C(=O)Nc1cc(C)c(Cl)cc1S(=O)(=O)O (centres undefined)	> 100

tested on: NCI-H522 lung; test: NCI tumour cell line growth inhibition, 48 h

Compound	TGI [µM]
CCCCCCc1cc2cc(C(=O)Nc3ccccc3)c(=N)oc2cc1O	6.02
Cc1nn(-c2ccccc2)c2c1C(c1ccc(Cl)cc1)NC(=S)N2 (centres undefined)	37.2
CCOC1OC(=O)c2cc3ccc4c(c3c(-c3ccc5c(c3)OCO5)c21)OCO4 (centres undefined)	6.9
CN=C1CC2c3cc(OC)c(OC)cc3CCN2C2=C1C(=O)CC(C)(C)C2 (centres undefined)	> 100
Cn1c(=O)n(C2(C)C[Se]C2)c2ccccc21	> 100
COC(=O)C(Cc1nc2ccc(Cl)cc2[nH]c1=O)/C(=N\N)C(=O)Nc1cc(C)c(Cl)cc1S(=O)(=O)O (centres undefined)	> 100

tested on: MCF7 breast; test: NCI tumour cell line growth inhibition, 48 h

Compound	TGI [µM]
O=C1/C(=C/c2ccccc2S)N=C(c2ccccc2)N1c1nc2c(Cl)cc(Cl)cc2s1	58.1
CCCCCCc1cc2cc(C(=O)Nc3ccccc3)c(=N)oc2cc1O	> 100
Cc1nn(-c2ccccc2)c2c1C(c1ccc(Cl)cc1)NC(=S)N2 (centres undefined)	> 100
CCOC1OC(=O)c2cc3ccc4c(c3c(-c3ccc5c(c3)OCO5)c21)OCO4 (centres undefined)	> 100

tested on: T-47D breast; test: NCI tumour cell line growth inhibition, 48 h

Compound	TGI [µM]
O=C1/C(=C/c2ccccc2S)N=C(c2ccccc2)N1c1nc2c(Cl)cc(Cl)cc2s1	> 100
CCCCCCc1cc2cc(C(=O)Nc3ccccc3)c(=N)oc2cc1O	> 47.1
Cc1nn(-c2ccccc2)c2c1C(c1ccc(Cl)cc1)NC(=S)N2 (centres undefined)	> 100
CCOC1OC(=O)c2cc3ccc4c(c3c(-c3ccc5c(c3)OCO5)c21)OCO4 (centres undefined)	> 100

tested on: K-562 leukemia; test: NCI tumour cell line growth inhibition, 48 h

Compound	TGI [µM]
O=C1/C(=C/c2ccccc2S)N=C(c2ccccc2)N1c1nc2c(Cl)cc(Cl)cc2s1	81.5
CCCCCCc1cc2cc(C(=O)Nc3ccccc3)c(=N)oc2cc1O	> 100
Cc1nn(-c2ccccc2)c2c1C(c1ccc(Cl)cc1)NC(=S)N2 (centres undefined)	> 100
CCOC1OC(=O)c2cc3ccc4c(c3c(-c3ccc5c(c3)OCO5)c21)OCO4 (centres undefined)	> 100
Cn1c(=O)n(C2(C)C[Se]C2)c2ccccc21	> 100
COC(=O)C(Cc1nc2ccc(Cl)cc2[nH]c1=O)/C(=N\N)C(=O)Nc1cc(C)c(Cl)cc1S(=O)(=O)O (centres undefined)	> 100

tested on: CAKI-1 renal; test: NCI tumour cell line growth inhibition, 48 h

Compound	TGI [µM]
O=C1/C(=C/c2ccccc2S)N=C(c2ccccc2)N1c1nc2c(Cl)cc(Cl)cc2s1	> 100
CCCCCCc1cc2cc(C(=O)Nc3ccccc3)c(=N)oc2cc1O	> 100
Cc1nn(-c2ccccc2)c2c1C(c1ccc(Cl)cc1)NC(=S)N2 (centres undefined)	> 100
CCOC1OC(=O)c2cc3ccc4c(c3c(-c3ccc5c(c3)OCO5)c21)OCO4 (centres undefined)	> 100
CN=C1CC2c3cc(OC)c(OC)cc3CCN2C2=C1C(=O)CC(C)(C)C2 (centres undefined)	> 100
Cn1c(=O)n(C2(C)C[Se]C2)c2ccccc21	> 100
COC(=O)C(Cc1nc2ccc(Cl)cc2[nH]c1=O)/C(=N\N)C(=O)Nc1cc(C)c(Cl)cc1S(=O)(=O)O (centres undefined)	> 100

tested on: HCC-2998 colon; test: NCI tumour cell line growth inhibition, 48 h

Compound	TGI [µM]
O=C1/C(=C/c2ccccc2S)N=C(c2ccccc2)N1c1nc2c(Cl)cc(Cl)cc2s1	54.7
CCCCCCc1cc2cc(C(=O)Nc3ccccc3)c(=N)oc2cc1O	20.8
CCOC1OC(=O)c2cc3ccc4c(c3c(-c3ccc5c(c3)OCO5)c21)OCO4 (centres undefined)	20.3
CN=C1CC2c3cc(OC)c(OC)cc3CCN2C2=C1C(=O)CC(C)(C)C2 (centres undefined)	> 100
Cn1c(=O)n(C2(C)C[Se]C2)c2ccccc21	> 100
COC(=O)C(Cc1nc2ccc(Cl)cc2[nH]c1=O)/C(=N\N)C(=O)Nc1cc(C)c(Cl)cc1S(=O)(=O)O (centres undefined)	> 100

tested on: MALME-3M melanoma; test: NCI tumour cell line growth inhibition, 48 h

Compound	TGI [µM]
CCCCCCc1cc2cc(C(=O)Nc3ccccc3)c(=N)oc2cc1O	5.6
Cc1nn(-c2ccccc2)c2c1C(c1ccc(Cl)cc1)NC(=S)N2 (centres undefined)	93.9
CCOC1OC(=O)c2cc3ccc4c(c3c(-c3ccc5c(c3)OCO5)c21)OCO4 (centres undefined)	> 100
CN=C1CC2c3cc(OC)c(OC)cc3CCN2C2=C1C(=O)CC(C)(C)C2 (centres undefined)	> 100
COC(=O)C(Cc1nc2ccc(Cl)cc2[nH]c1=O)/C(=N\N)C(=O)Nc1cc(C)c(Cl)cc1S(=O)(=O)O (centres undefined)	> 100

tested on: KM12 colon; test: NCI tumour cell line growth inhibition, 48 h

Compound	TGI [µM]
O=C1/C(=C/c2ccccc2S)N=C(c2ccccc2)N1c1nc2c(Cl)cc(Cl)cc2s1	88.1
CCCCCCc1cc2cc(C(=O)Nc3ccccc3)c(=N)oc2cc1O	8.48
Cc1nn(-c2ccccc2)c2c1C(c1ccc(Cl)cc1)NC(=S)N2 (centres undefined)	64.8
CCOC1OC(=O)c2cc3ccc4c(c3c(-c3ccc5c(c3)OCO5)c21)OCO4 (centres undefined)	> 100
CN=C1CC2c3cc(OC)c(OC)cc3CCN2C2=C1C(=O)CC(C)(C)C2 (centres undefined)	> 100
Cn1c(=O)n(C2(C)C[Se]C2)c2ccccc21	> 100
COC(=O)C(Cc1nc2ccc(Cl)cc2[nH]c1=O)/C(=N\N)C(=O)Nc1cc(C)c(Cl)cc1S(=O)(=O)O (centres undefined)	> 100

tested on: HL-60(TB) leukemia; test: NCI tumour cell line growth inhibition, 48 h

Compound	TGI [µM]
O=C1/C(=C/c2ccccc2S)N=C(c2ccccc2)N1c1nc2c(Cl)cc(Cl)cc2s1	42.6
CCCCCCc1cc2cc(C(=O)Nc3ccccc3)c(=N)oc2cc1O	> 100
Cc1nn(-c2ccccc2)c2c1C(c1ccc(Cl)cc1)NC(=S)N2 (centres undefined)	95.8
CCOC1OC(=O)c2cc3ccc4c(c3c(-c3ccc5c(c3)OCO5)c21)OCO4 (centres undefined)	> 100
CN=C1CC2c3cc(OC)c(OC)cc3CCN2C2=C1C(=O)CC(C)(C)C2 (centres undefined)	> 100
Cn1c(=O)n(C2(C)C[Se]C2)c2ccccc21	> 100

tested on: SF-268 CNS; test: NCI tumour cell line growth inhibition, 48 h

Compound	TGI [µM]
O=C1/C(=C/c2ccccc2S)N=C(c2ccccc2)N1c1nc2c(Cl)cc(Cl)cc2s1	> 100
CCCCCCc1cc2cc(C(=O)Nc3ccccc3)c(=N)oc2cc1O	> 100
Cc1nn(-c2ccccc2)c2c1C(c1ccc(Cl)cc1)NC(=S)N2 (centres undefined)	> 100
CCOC1OC(=O)c2cc3ccc4c(c3c(-c3ccc5c(c3)OCO5)c21)OCO4 (centres undefined)	> 100

Reference: PubChem BioAssay (NCI)
